Like-named read-outs stand apart in the source and are kept apart here.
What was measured:
CEM cells = assay: Cytostatic assay, CEM; assay type: cell-based; details: for IC50: Homo sapiens, CCRF-CEM
Procedure: (§1) To each well of a 96-well microtiter plate were added 5-7.5×10^4 cells and a given amount of the test compound. The cells were allowed to proliferate for 48 h to 96 h (depending on the nature of the cell line) at 37° C. in a humidified CO2-controlled atmosphere. At the end of the incubation period, the cells were counted in a Coulter Counter (Coulter Electronics Ltd, Harpenden Herts, United Kingdom).

[1] = test system: HeLa cervix carcinoma cells; assay: Cytostatic assay, HeLa; assay type: cell-based, human; details: Homo sapiens
Procedure: as §1

[2] = test system: MCF-7 mammary carcinoma cells; assay: Cytostatic assay, MCF-7; assay type: cell-based; details: Homo sapiens, MCF7; Table 3
Procedure: as §1

U87 glioma cells = assay: Cytostatic assay, U87; assay type: cell-based; details: Homo sapiens, U-87 MG; Table 3
Procedure: as §1

[3] = test system: DU145 (UZ) prostate cancer cells; assay: Cytostatic assay, DU145 (UZ); assay type: cell-based; details: Homo sapiens, DU-145; Table 4
Procedure: as §1

[4] = test system: 293T embryonic kidney cells; assay: Cytostatic assay, 293T; assay type: cell-based; details: Homo sapiens, HEK-293T; Table 3
Procedure: as §1

Huh-7 hepatoma cells = assay: Cytostatic assay, Huh-7; assay type: cell-based; details: Homo sapiens, Table 4
Procedure: as §1

Molt4/C8 cells = assay: Cytostatic assay, Molt4/C8; assay type: cell-based; details: Table 2
Procedure: as §1

[5] = test system: PNT1A (UZ) prostate cells; assay: Cytostatic assay, PNT1A (UZ); assay type: cell-based; details: Homo sapiens, Table 4
Procedure: as §1

MT-2 cells = assay: Cytostatic assay, MT-2; assay type: cell-based; details: Homo sapiens, MT2; Table 2
Procedure: as §1

[6] = test system: Raji, human B-lymphoma cells; assay: Cytostatic assay, Raji; assay type: cell-based; details: Table 2
Procedure: as §1

[7] = test system: PC-3 (UZ) prostate cancer cells; assay: Cytostatic assay, PC-3 (UZ); assay type: cell-based; details: Table 4
Procedure: as §1

[8] = test system: 22Rv1 (UZ) prostate cancer cells; assay: Cytostatic assay, 22Rv1 (UZ); assay type: cell-based; details: Homo sapiens, Table 4
Procedure: as §1

HUT-78 cells = assay: Cytostatic assay, HUT-78; assay type: cell-based; details: Homo sapiens, HuT78; Table 2
Procedure: as §1

BPH-1 (UZ) = assay: Cytostatic assay, BPH-1 (UZ); assay type: cell-based; details: Homo sapiens, Table 4
Procedure: as §1

[9] = test system: Caki-1 kidney carcinoma cells; assay: Cytostatic assay, Caki-1; assay type: cell-based; details: Homo sapiens, Table 3
Procedure: as §1

[10] = test system: BAEC aortic endothelial cells; assay: Cytostatic assay, BAEC; assay type: cell-based, bovine; details: Bos taurus, Table 3
Procedure: as §1

PLC/PRF/5 hepatoma cells = assay: Cytostatic assay, PLC/PRF/5; assay type: cell-based; details: Homo sapiens, Table 4
Procedure: as §1

[11] = test system: Caki-2 kidney carcinoma cells; assay: Cytostatic assay, Caki-2; assay type: cell-based; details: Homo sapiens, Table 3
Procedure: as §1

[12] = test system: FM3A mammary carcinoma cells; assay: Cytostatic assay, FM3A; assay type: cell-based, murine; details: Mus musculus, Table 3
Procedure: as §1

L1210 cells = assay: Cytostatic assay, L1210; assay type: cell-based; details: Mus musculus, Table 2
Procedure: as §1

[13] = test system: LNCaP (UZ) prostate cancer cells; assay: Cytostatic assay, LNCaP (UZ); assay type: cell-based; details: Homo sapiens, Table 4
Procedure: as §1

[14] = test system: THP-1, human monocytic cells; assay: Cytostatic assay, THP-1; assay type: cell-based; details: Table 2
Procedure: as §1

HepG2C3A hepatoma cells = assay: Cytostatic assay, HepG2C3A; assay type: cell-based; details: Homo sapiens, HepG2/C3A; Table 4
Procedure: as §1

MT-4 cells = assay: Cytostatic assay, MT-4; assay type: cell-based; details: Homo sapiens, MT4; Table 2
Procedure: as §1

[15] = test system: U937, human monocytic cells; assay: Cytostatic assay, U937; assay type: cell-based; details: U-937, Table 2
Procedure: as §1

[16] = test system: HEL embryonic lung fibroblast cells; assay: Cytostatic assay, HEL; assay type: cell-based; details: Homo sapiens, Table 3
Procedure: as §1

[17] = test system: HT29 colorectal carcinoma cells; assay: Cytostatic assay, HT29; assay type: cell-based; details: Homo sapiens, HT-29; Table 3
Procedure: as §1

[18] = test system: OST TK- osteosarcoma cells; assay: Cytostatic assay, OST TK-; assay type: cell-based; details: Homo sapiens; Table 3
Procedure: as §1

Sup T1 cells = assay: Cytostatic assay, Sup T1; assay type: cell-based; details: Homo sapiens, Table 2, read-out: Cytostatic activity (μM) Sup T 1
Procedure: as §1

[19] = test system: HL60, human leukemia cells; assay: Cytostatic assay, HL-60; assay type: cell-based; details: Table 2
Procedure: as §1

C8166 cells = assay: Cytostatic assay, C8166; assay type: cell-based; details: Homo sapiens, Table 2
Procedure: as §1

[20] = test system: PC3 (rega) prostate cancer cells; assay: Cytostatic assay, PC3 (rega); assay type: cell-based; details: Table 4
Procedure: as §1

[21] = Table 1a, read-out: IC50 μM (CEM)
[22] = Table 2, read-out: Cytostatic activity (μM) CEM
[23] = Table 3, read-out: Cytostatic activity (μM) Hela

IC50 [2] [µM]	IC50 (U87 glioma cells) [µM]	IC50 [3] [µM]	IC50 (Huh-7 hepatoma cells) [µM]	IC50 (Molt4/C8 cells) [µM]	IC50 (CEM cells; [21]) [µM]	IC50 (CEM cells; [22]) [µM]	IC50 [5] [µM]	IC50 (MT-2 cells) [µM]	IC50 [6] [µM]	IC50 [7] [µM]	IC50 [8] [µM]	IC50 (HUT-78 cells) [µM]	IC50 [1, 23] [µM]	IC50 (BPH-1 (UZ)) [µM]	IC50 [9] [µM]	IC50 [10] [µM]	IC50 (PLC/PRF/5 hepatoma cells) [µM]	IC50 [11] [µM]	SMILES	IC50 [4] [µM]	other results
																			CCCc1cc(C(=O)OC)c(N)s1 [TJ190, Methyl 2-amino-5-propylthiophene-3-carboxylate]		IC50 (CEM cells; CEM cells, Table 6, 5-alkyl-substituted 2-aminothiophenes, read-out: IC50 (μM) CEM): 6.9 µM; Ratio (tumor cell selectivity) (CEM cells; ratio IC50 HeLa / IC50 CEM, Table 6): 9; IC50 ([1]; HeLa cells, Table 6, 5-alkyl-substituted 2-aminothiophenes, read-out: IC50 (μM) HeLa): 61 µM
48 ± 11	38 ± 8.5	34 ± 4.2	43 ± 12	31 ± 2.1	27	27 ± 10	45 ± 1.4	27 ± 4.2	48 ± 13	28 ± 0.71	20 ± 5.1	108 ± 5.7	40 ± 9	39	17 ± 3.5	31 ± 6.4	21 ± 0.71	17 ± 3.5	CCOC(=O)c1cc(-c2ccccc2OC)sc1N [TR531, 2-Amino-5-(2-methoxy-phenyl)-thiophene-3-carboxylic acid ethyl ester]	58 ± 7.1	IC50 [12]: 49 ± 1 µM; IC50 (L1210 cells): 41 ± 3 µM; IC50 [13]: 11 ± 5 µM; IC50 [14]: 25 ± 19 µM; IC50 (HepG2C3A hepatoma cells): 10 ± 5.2 µM; IC50 (MT-4 cells): 44 ± 5.7 µM; IC50 [15]: 73 ± 3.5 µM; IC50 [16]: 25 ± 3.5 µM; IC50 [17]: 43 ± 2.8 µM; IC50 [18]: 18 ± 1.4 µM; IC50 (Sup T1 cells): 28 ± 12 µM; IC50 [19]: 17 ± 5.7 µM; IC50 (C8166 cells): 133 ± 7.8 µM; IC50 [20]: 25 ± 6.4 µM
87 ± 21	81 ± 27	89 ± 16	51 ± 14	54 ± 6	72	72 ± 6.4	56	31 ± 29	58 ± 13	31 ± 5.7	31 ± 4.2	120 ± 44	41 ± 7.1	65 ± 9.2	87 ± 21	82 ± 26	75 ± 35	57 ± 24	CCOC(=O)c1c(N)sc(CCc2ccc(OC)cc2)c1C(=O)OCC [TR547, 2-Amino-5-[2-(4-methoxy-phenyl)-ethyl]-thiophene-3,4-dicarboxylic acid diethyl ester]	58 ± 2.8	IC50 [12]: 86 ± 5.6 µM; IC50 (L1210 cells): 105 ± 48 µM; IC50 [13]: 19 ± 10 µM; IC50 [14]: 26 ± 2.8 µM; IC50 (HepG2C3A hepatoma cells): 48 ± 16 µM; IC50 (MT-4 cells): 38 ± 3.5 µM; IC50 [15]: 80 ± 3.5 µM; IC50 [16]: 44 ± 3.5 µM; IC50 [17]: 46 ± 3.5 µM; IC50 [18]: 71 ± 7.8 µM; IC50 (Sup T1 cells): 73 ± 13 µM; IC50 [19]: 46 ± 25 µM; IC50 (C8166 cells): 122 ± 12 µM; IC50 [20]: 38 ± 12 µM
119 ± 52	71 ± 3.5	18 ± 9.2	42 ± 7.8	44 ± 9	74	74 ± 3.5	53 ± 2.1	12 ± 1.4	61 ± 18	4.3 ± 1.7	69 ± 44	26 ± 17	63 ± 19	58 ± 6.4	4.4 ± 1.9	47 ± 3.5	42 ± 2.1	9 ± 1.4	COC(=O)c1cc(-c2ccc(OC)cc2)sc1N [TR572, 2-Amino-5-(4-methoxy-phenyl)-thiophene-3-carboxylic acid methyl ester]	> 100	IC50 [12]: 97 ± 32 µM; IC50 (L1210 cells): 60 ± 12 µM; IC50 [13]: 1.1 ± 0.84 µM; IC50 [14]: 21 ± 0.7 µM; IC50 (HepG2C3A hepatoma cells): 28 ± 8.5 µM; IC50 (MT-4 cells): 40 ± 12 µM; IC50 [15]: 63 ± 7.1 µM; IC50 [16]: 34 ± 20 µM; IC50 [17]: 42 ± 3.5 µM; IC50 [18]: 25 ± 2.1 µM; IC50 (Sup T1 cells): 55 ± 30 µM; IC50 [19]: 11 ± 1.4 µM; IC50 (C8166 cells): 179 ± 18 µM; IC50 [20]: 5.5 ± 4 µM
11 ± 8.5	41 ± 4.9	35 ± 16	52 ± 7.8	47 ± 16	44	44	46 ± 2.1	37 ± 29	49 ± 13	25 ± 5.7	28 ± 19	21 ± 1.4	38 ± 11	43 ± 3.5	57 ± 38	52 ± 46	36 ± 2.8	52 ± 17	COC(=O)c1c(N)sc(CCc2cc(OC)ccc2OC)c1C [TR599, 2-Amino-5-[2-(2,5-dimethoxy-phenyl)-ethyl]-4-methyl-thiophene-3-carboxylic acid methyl ester]	52 ± 2.1	IC50 [12]: 48 ± 3.5 µM; IC50 [13]: 8.7 ± 4.7 µM; IC50 [14]: 9 ± 0.6 µM; IC50 (HepG2C3A hepatoma cells): 34 ± 22 µM; IC50 (MT-4 cells): 58 ± 21 µM; IC50 [15]: 68 ± 0.7 µM; IC50 [16]: 46 ± 3.5 µM; IC50 [17]: 47 ± 2.1 µM; IC50 [18]: 34 ± 23 µM; IC50 (Sup T1 cells): 32 ± 15 µM; IC50 [19]: 18 ± 4.9 µM; IC50 (C8166 cells): 110 ± 31 µM; IC50 [20]: 24 ± 12 µM
44 ± 28	25	37 ± 2.1	49 ± 19	28 ± 6	42	42 ± 1.4	38 ± 5.7	14 ± 2.8	45 ± 11	25	11 ± 4.8	109 ± 82	39 ± 9.2	31	8.8 ± 3.1	26 ± 7.1	26 ± 0.71	24 ± 9.2	COC(=O)c1cc(-c2cc(OC)ccc2OC)sc1N [TR601, 2-Amino-5-(2,5-dimethoxy-phenyl)-thiophene-3-carboxylic acid methyl ester]	43 ± 16	IC50 [12]: 59 ± 11 µM; IC50 [13]: 21 ± 8.5 µM; IC50 [14]: 25 ± 5.7 µM; IC50 (HepG2C3A hepatoma cells): 22 ± 18 µM; IC50 (MT-4 cells): 50 ± 25 µM; IC50 [15]: 85 ± 2.8 µM; IC50 [16]: 17 ± 5.7 µM; IC50 [17]: 42 µM; IC50 [18]: 32 ± 18 µM; IC50 (Sup T1 cells): 38 ± 25 µM; IC50 [19]: 21 µM; IC50 (C8166 cells): 102 ± 1.4 µM; IC50 [20]: 23 ± 14 µM
